pEC50, pIC50: −log10 of the molar value. Values after ≈ are worked out from the molar mass of the structure shown.
Assays:
[1] = Aqueous solubility in buffer vs acetonitrile/water (1/1), LC-UV; type: physicochemical; settings: kinetic from dmso stock, buffer pH 2.2, 24 h shaking, 2.5% DMSO
Description: The aqueous solubility of the compounds of the invention is determined by comparing the amount dissolved in buffer to the amount in an acetonitrile/water (1/1) solution. Starting from a 10 mM DMSO stock solution aliquots are diluted with acetonitrile/water (1/1) or buffer, respectively. After 24 h of shaking, the solutions are filtrated and analyzed by LC-UV. The amount dissolved in buffer is compared to the amount in the acetonitrile solution.
Solubility is usually being measured from 0.001 to 0.125 mg/mL at a DMSO concentration of 2.5%. If more than 90% of the compound is dissolved in buffer, the value is marked with “>”.

[2] = target: T1, cytochrome P450 2C9-isoenzyme (Homo sapiens, UniProt P11712); assay: Inhibition of CYP-2C9 (hydroxylation of diclofenac, human liver microsomes); type: in vitro ADME; settings: CYP-2C9, human liver microsomes, diclofenac 10 μM, 37° C.
T1 construct: from tissue; host or cells: human liver microsomes
T1 sequence (P11712 whole entry): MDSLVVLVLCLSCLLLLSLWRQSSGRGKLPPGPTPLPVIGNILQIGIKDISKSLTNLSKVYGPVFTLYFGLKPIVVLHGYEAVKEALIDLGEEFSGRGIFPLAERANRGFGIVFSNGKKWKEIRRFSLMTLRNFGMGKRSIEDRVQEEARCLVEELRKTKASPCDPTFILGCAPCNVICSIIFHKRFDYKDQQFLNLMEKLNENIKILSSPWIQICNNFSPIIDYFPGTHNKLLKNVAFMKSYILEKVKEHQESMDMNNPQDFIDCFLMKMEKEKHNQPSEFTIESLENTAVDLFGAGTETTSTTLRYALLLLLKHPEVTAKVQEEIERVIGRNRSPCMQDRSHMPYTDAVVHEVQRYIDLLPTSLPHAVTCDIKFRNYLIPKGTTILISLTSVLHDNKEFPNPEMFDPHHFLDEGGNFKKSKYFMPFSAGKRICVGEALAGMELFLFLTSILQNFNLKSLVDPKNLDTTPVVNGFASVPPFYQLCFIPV
Description: The inhibition of cytochrome P450 2C9-isoenzyme catalyzed hydroxylation of diclofenac by the test compound is assayed at 37° C. with human liver microsomes. All assays are carried out on a robotic system in 96 well plates. The final incubation volume contains TRIS buffer (0.1 M), MgCl2 (5 mM), human liver microsomes (0.1 mg/mL), diclofenac (10 μM) and the test compound at five different concentrations or no compound (high control) in duplicate (e.g., highest concentration 10-50 μM with subsequent serial 1:4 dilutions). Following a short preincubation period, reactions are started with the cofactor (NADPH, 1 mM) and stopped by cooling the incubation down to 8° C. and subsequently by addition of one volume of acetonitrile. An internal standard solution—the stable isotope ^13C6-hydroxydiclofenac—is added after quenching of incubations. Peak area analyte (=metabolite formed) and internal standard is determined by LC-MS/MS. The resulting peak area ratio analyte to internal standard in these incubations is compared to a control activity containing no test compound. Within each of the assay runs, the IC50 of a positive control inhibitor (sulfaphenazole) is determined. Experimental IC50 values are calculated by least square regression according to the following equation: % control activity=(100% control activity/(1+(I/IC50)S))−B with I=inhibitor concentration; S=slope factor; B=background activity (lower plateau of the inhibition curve)
(§1) If the inhibition of the reaction is already >50% at the lowest concentration of the test compound, the IC50 is assigned “<lowest concentration tested” (usually <0.4 μM). If the inhibition of the reaction is still <50% at the highest concentration of the test compound, the IC50 is assigned “>highest concentration tested” (usually >50 μM).

human GPR40 receptor = human GPR40 receptor (Homo sapiens, UniProt O14842); assay: IP1 accumulation measurements using the IPOne assay system (1321N1 cells stably expressing human GPR40 receptor); type: cell-based; settings: 1321N1 cells expressing human GPR40, 1 h stimulation at 37° C.
Chain of human GPR40 receptor (O14842 whole entry): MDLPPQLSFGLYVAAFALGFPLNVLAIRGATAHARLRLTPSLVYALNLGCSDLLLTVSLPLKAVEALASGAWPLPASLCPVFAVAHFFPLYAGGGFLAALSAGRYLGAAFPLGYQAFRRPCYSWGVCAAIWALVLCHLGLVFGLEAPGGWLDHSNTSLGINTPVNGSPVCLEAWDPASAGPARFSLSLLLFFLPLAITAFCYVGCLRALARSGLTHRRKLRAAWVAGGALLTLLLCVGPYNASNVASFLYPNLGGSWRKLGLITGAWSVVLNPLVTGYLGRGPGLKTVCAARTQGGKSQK
Description: IP1 accumulation measurements using the IPOne assay system—1321N1 cells stably expressing human GPR40 receptor (Euroscreen, Belgium) are seeded 24 h before the assay in white 384-well plates in culture medium containing 10% FCS, 1% Na-Pyruvate and 400 μg/mL G418. IP1 is assayed according to the manufacturer's description (Cisbio Bioassays, France). In brief, the assay is started by substitution of the culture medium by stimulation buffer (Hepes 10 mM, CaCl2 1 mM, MgCl2 0.5 mM, KCl 4.2 mM, NaCl 146 mM, glucose 5.5 mM and LiCl 50 mM, pH 7.4). Cells are stimulated for 1 h at 37° C., 5% CO2 by addition of the compounds that are diluted in stimulation buffer containing LiCl. Assays are stopped by adding HTRF-conjugates (IP1-d2 and Anti-IP1 cryptate Tb) and lysis buffer, provided by the manufacturer. After an incubation time of 1 h at room temperature plates are measured using an EnVision™, Perkin Elmer. The obtained fluorescence ratios at 665/615 […] are then used to calculate the pEC50 values using Assay Explorer 3.3 Software (Accelrys, Inc.) by interpolation using an IP1 reference curve and subsequent sigmoidal curve fitting allowing for a variable hill slope.

[3] = target: T2, cytochrome P450 2C8-isoenzyme (Homo sapiens, UniProt P10632); assay: Inhibition of CYP-2C8 (deethylation of amodiaquine, human liver microsomes); type: in vitro ADME; settings: CYP-2C8, human liver microsomes, amodiaquine 1 μM, 37° C.
T2 construct: from tissue; host or cells: human liver microsomes
T2 sequence (P10632 1-490): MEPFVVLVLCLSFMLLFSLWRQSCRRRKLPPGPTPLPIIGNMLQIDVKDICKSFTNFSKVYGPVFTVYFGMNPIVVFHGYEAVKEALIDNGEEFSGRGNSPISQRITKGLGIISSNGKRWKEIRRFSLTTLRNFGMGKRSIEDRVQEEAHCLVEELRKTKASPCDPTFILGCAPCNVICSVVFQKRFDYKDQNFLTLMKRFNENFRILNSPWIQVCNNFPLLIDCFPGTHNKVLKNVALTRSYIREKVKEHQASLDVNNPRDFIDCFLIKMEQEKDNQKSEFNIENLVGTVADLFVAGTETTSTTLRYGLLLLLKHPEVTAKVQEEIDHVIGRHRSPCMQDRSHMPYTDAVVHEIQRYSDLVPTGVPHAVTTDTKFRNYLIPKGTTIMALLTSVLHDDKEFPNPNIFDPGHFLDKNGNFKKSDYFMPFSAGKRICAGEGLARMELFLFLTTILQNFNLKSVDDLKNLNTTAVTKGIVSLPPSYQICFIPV
Description: The inhibition of cytochrome P450 2C8-isoenzyme catalyzed deethylation of amodiaquine by the test compound is assayed at 37° C. with human liver microsomes. All assays are carried out on a robotic system in 96 well plates. The final incubation volume contains TRIS buffer (0.1 M), MgCl2 (5 mM), human liver microsomes (0.05 mg/mL), amodiaquine (1 μM) and the test compound at five different concentrations or no compound (high control) in duplicate (e.g. highest concentration 10-50 μM with subsequent serial 1:4 dilutions). Following a short preincubation period, reactions are started with the cofactor (NADPH, 1 mM) and stopped by cooling the incubation down to 8° C. and subsequently by addition of one volume of acetonitrile. An internal standard solution—the stable isotope d5-desethylamodiaquine—is added after quenching of incubations. Peak area analyte (=metabolite formed) and internal standard is determined by LC-MS/MS. The resulting peak area ratio analyte to internal standard in these incubations is compared to a control activity containing no test compound. Within each of the assay runs, the IC50 of a positive control inhibitor (Montelukast) is determined. Experimental IC50 values are calculated by least square regression according to the following equation: % control activity=(100% control activity/(1+(I/IC50)S))−B with I=inhibitor concentration; S=slope factor; B=background activity (lower plateau of the inhibition curve)
as §1

| Compound | solubility at 24 h [1] | pIC50 [2] | pEC50 (human GPR40 receptor) | pIC50 [3] |
| --- | --- | --- | --- | --- |
| COc1cc(OC)c(Cl)c(-c2ccc(F)c3c2CC[C@H]3Nc2ccc([C@H]3C[C@@H]3C(=O)O)cn2)c1Cl [Example 53] | 76 µg/mL (≈ 147 µM) | 4.85 | 7.89 | 4.96 |
| Cc1cc(-c2cc(=O)n(C)cn2)cc(C)c1-c1ccc(F)c2c1CC[C@H]2Nc1ccc([C@H]2C[C@@H]2C(=O)O)cn1 [Example 45] | 86 µg/mL (≈ 164 µM) | < 4.30 | 8.30 | 4.62 |
| COc1cc(OC)c(-c2ccc(F)c3c2CC[C@H]3Nc2ccc([C@H]3C[C@@H]3C(=O)O)cn2)c(OC)c1 [Example 48] | > 107 µg/mL | < 4.30 | 6.37 | < 4.30 |
| Cc1cc(OCC2CCOC2)cc(C)c1-c1ccc(F)c2c1CC[C@H]2Nc1ccc([C@H]2C[C@@H]2C(=O)O)cn1 (stereo partly drawn) [Example 16] | 110 µg/mL (≈ 213 µM) | < 4.30 | 7.96 | 4.34 |
| O=C(O)[C@H]1C[C@@H]1c1ccc(N[C@@H]2CCc3c(-c4c(F)cc(OC5CC5)cc4F)ccc(F)c32)nc1 [Example 60] | 68 µg/mL (≈ 142 µM) | 5.05 | 7.21 | 4.60 |
| Cc1cccc(C)c1-c1ccc(F)c2c1CC[C@H]2Nc1ccc([C@H]2C[C@@H]2C(=O)O)cn1 [Example 17] | 65 µg/mL (≈ 156 µM) | 4.44 | 7.89 | 4.47 |
| COc1c(F)c(F)c(-c2ccc(F)c3c2CC[C@H]3Nc2ccc([C@H]3C[C@@H]3C(=O)O)cn2)c(F)c1F [Example 76] | 104 µg/mL (≈ 212 µM) | 4.40 | 8.52 | 4.52 |
| Cc1cc(-c2nnn[nH]2)cc(C)c1-c1ccc(F)c2c1CC[C@H]2Nc1ccc([C@H]2C[C@@H]2C(=O)O)cn1 [Example 25] | 67 µg/mL (≈ 138 µM) | < 4.30 | 6.75 | 5.40 |
| O=C(O)[C@H]1C[C@@H]1c1ccc(N[C@@H]2CCc3c(-c4c(F)cccc4F)ccc(F)c32)nc1 [Example 55] | 73 µg/mL (≈ 172 µM) | < 4.30 | 6.68 | < 4.30 |
| Cc1ccc(Cl)c(-c2ccc(F)c3c2CC[C@H]3Nc2ccc([C@H]3C[C@@H]3C(=O)O)cn2)c1Cl [Example 51] | 56 µg/mL (≈ 119 µM) | 4.77 | 8.15 | 4.92 |
| Cc1cc(-c2nnnn2CC(C)(C)O)cc(C)c1-c1ccc(F)c2c1CC[C@H]2Nc1ccc([C@H]2C[C@@H]2C(=O)O)cn1 [Example 24] | 103 µg/mL (≈ 185 µM) | < 4.30 | 6.50 | < 4.30 |
| Cc1cc(-c2ccn(C)c(=O)n2)cc(C)c1-c1ccc(F)c2c1CC[C@H]2Nc1ccc([C@H]2C[C@@H]2C(=O)O)cn1 [Example 71] | 121 µg/mL (≈ 231 µM) | < 4.30 | 8.22 | 4.74 |
| N#Cc1cccc(C#N)c1-c1ccc(F)c2c1CC[C@H]2Nc1ccc([C@H]2C[C@@H]2C(=O)O)cn1 [Example 44] | > 158 µg/mL | < 4.30 | 5.38 | < 4.30 |
| Cc1cc(OCc2ccccc2)cc(C)c1-c1ccc(F)c2c1CC[C@H]2Nc1ccc([C@H]2C[C@@H]2C(=O)O)cn1 [Example 32] | < 1 µg/mL | 4.62 | 7.46 | 4.92 |
| Cc1cc(-c2nnn(CC(C)(C)O)n2)cc(C)c1-c1ccc(F)c2c1CC[C@H]2Nc1ccc([C@H]2C[C@@H]2C(=O)O)cn1 [Example 14] | 83 µg/mL (≈ 149 µM) | < 4.30 | 8.40 | 4.35 |
| Cc1cc(O[C@H]2CCOC2)cc(C)c1-c1ccc(F)c2c1CC[C@H]2Nc1ccc([C@H]2C[C@@H]2C(=O)O)cn1 [Example 13] | 115 µg/mL (≈ 229 µM) | < 4.30 | 7.57 | 4.31 |
| Cc1cc(OCC(C)(C)O)cc(C)c1-c1ccc(F)c2c1CC[C@H]2Nc1ccc([C@H]2C[C@@H]2C(=O)O)cn1 [Example 29] | 111 µg/mL (≈ 220 µM) | < 4.30 | 7.77 | < 4.30 |
| Cc1cc(-c2nnn(C)n2)cc(C)c1-c1ccc(F)c2c1CC[C@H]2Nc1ccc([C@H]2C[C@@H]2C(=O)O)cn1 [Example 3, (1S,2S)-2-(6-{(R)-4-[2,6-Dimethyl-4-(2-methyl-2H-tetrazol-5-yl)-phenyl]-7-fluoro-indan-1-ylamino}-pyridin-3-yl)-cyclopropanecarboxylic acid] | 91 µg/mL (≈ 183 µM) | < 4.30 | 8.40 | 4.72 |
| Cc1cc(-c2ccc(=O)n(C)c2)cc(C)c1-c1ccc(F)c2c1CC[C@H]2Nc1ccc([C@H]2C[C@@H]2C(=O)O)cn1 [Example 37] | 113 µg/mL (≈ 216 µM) | < 4.30 | 7.96 | 4.77 |
| Cc1cc(OCC(=O)O)cc(C)c1-c1ccc(F)c2c1CC[C@H]2Nc1ccc([C@H]2C[C@@H]2C(=O)O)cn1 [Example 34] | 73 µg/mL (≈ 149 µM) | < 4.30 | 5.38 | < 4.30 |
| Cc1cc(CO)cc(C)c1-c1ccc(F)c2c1CC[C@H]2Nc1ccc([C@H]2C[C@@H]2C(=O)O)cn1 [Example 28] | 87 µg/mL (≈ 195 µM) | < 4.30 | 7.15 | < 4.30 |
